The target of experiment [1] is T1, SARS-CoV-2 M^pro (Severe acute respiratory syndrome coronavirus 2, UniProt P0DTD1). The experiment in a line: FRET-based enzymatic assay, SARS-CoV-2 M^pro. Conditions: FRET assay M^pro IC50, 4 mM DTT. Type of experiment: biochemical.
The target in experiment [2] is T1, SARS-CoV-2 M^pro. In words: cell-based.
The target of experiment [3] is SARS-CoV-2 PL^pro (Severe acute respiratory syndrome coronavirus 2, UniProt P0DTD1). In words: FRET-based enzymatic assay, SARS-CoV-2 PL^pro. The class given is biochemical.

Regarding `Oc1cc(O)cc(Oc2c(O)cc(O)c3c2Oc2c(O)cc(Oc4c(O)cc(Oc5c(O)cc(O)c6c5Oc5c(O)cc(O)cc5O6)cc4O)cc2O3)c1` [Dieckol, dieckol], the half-maximal inhibitory concentration (IC50) (in general, the midpoint of a concentration-inhibition curve) was over 20 µM in experiment [1], over 60 µM in experiment [2] and over 20 µM in experiment [3].

For the origin of these results see publication PMC9095416 (Medicinal Chemistry Research, 2022).
